Patent publication US8846699B2, “Quinazoline derivatives as a multiplex inhibitor and method for the preparation thereof” (Hanmi Pharm. Co., Ltd., priority 2005, dated 2014)

Key:
VEGFR2 (KDR) = VEGFR2 (KDR) (Homo sapiens (Human), UniProt P35968); experiment: VEGFR2 (KDR) enzyme assay, fluorescence polarization; assay type: biochemical; conditions: 5 μM ATP, poly(Glu, Tyr) substrate
Experimental: VEGFR2 (KDR, Proquinase) enzyme assay (auto-phosphorylation assay) was carried out by using Tyrosine Kinase Assay Kit Green (Panvera). The entire assay was conducted in accordance with VEGFR PTK inhibitor cellular activity test S.O.P.
A typical kinase inhibition reaction requires a protein tyrosine kinase, a suitable buffer solution system, a peptide substrate and ATP. In the present VEGFR tyrosine kinase assay, a buffer solution system containing 20 mM HEPES (pH 7.4), 5 mM MgCl2 and 2 mM MnCl2; 50 μM Na3VO4; 200 ng/10 μl VEGFR (Proquinase); 5 μM ATP; and 10 ng/ml poly(Glu, Tyr) (4:1, Sigma) as a substrate were used.
The compounds of Test Example 1 were used as control compounds at a concentration of 0.0001 to 10 μM. After 10 min, 10 μl of poly(Glu, Tyr) as a substrate was added to each well, and 10 μl of ATP was added thereto to initiate kinase reaction. The plate was incubated at room temperature for 1 hour, and 10 μl of 100 mM EDTA was added to each well to terminate the kinase reaction.
The added EDTA was mixed for 5 min. Thereafter, 10 μl of 10× anti-phosphotyrosine antibody (Panvera), 10 μl of 10×PTK Green Tracer (Panvera) and 30 μl of FP dilution buffer (Panvera) were added thereto, and the plate was incubated in a dark room at room temperature for 30 min.

[1] = system: skin cancer cell line, A431; experiment: Inhibitory effect on growth of cancer cell line A431, SRB; assay type: cell-based; conditions: overexpressed EGFR1 (HER-1)
Description: (§1) A skin cancer cell line, A431 (ATCC: CRL-1555), a breast cancer cell line, SK-Br3 (ATCC: HTB-30), and a colon and rectal cancer cell line, SW-620 (ATCC: CCL-227) were used to test the degrees of cancer cell growth inhibition using a culture medium, DEME (Dulbecco's Modified Eagle's Medium, JBI) including 4.5 g/l of glucose and 1.5 g/l of sodium bicarbonate and supplemented with 10% FBS (fetal bovine serum, JBI).
(§2) The cancer cell lines stored in a liquid nitrogen tank were each quickly thawed at 37° C., and centrifuged to remove the medium. The resulting cell pellet was mixed with a culture medium, incubated in a culture flask at 37° C. under 5% CO2 for 2 to 3 days, and the medium was removed. The remaining cells were washed with DPBS (Dulbecco's Phosphate Buffered Saline, JBI) and separated from the flask by using Trypsin-EDTA solution, and the separated cells were diluted with a culture medium to a concentration of 1.0×10^6 cells/ml in case of A431 and SW-620, and 2.0×10^6 cells/ml in case of SK-Br3. 100 μl of the diluted cell solution was added to each well of a 96-well plate, which was incubated at 37° C. under 5% CO2 for 1 day.
(§3) In case that the test compound was not soluble in DMSO, a small amount of 1% HCl was added thereto and treated in a 40° C. water bath for 30 mins until complete dissolution was attained. The test compound solution was diluted with a culture medium to a final concentration of 10 μM, and then diluted 10 times serially to 10^−4. The final concentration of DMSO was less than 1%, and the control compounds of Test Example 1 were used at a concentration of 0.0001 to 10 μM.
(§4) The medium was removed from each well of the 96-well microplate, 100 μl of a diluted test compound solution was added to each well holding cultured cells, and the microplate was incubated at 37° C. under 5% CO2 for 72 hours. After removing the medium from the plate, 50 μl of 10% trichloroacetic acid was added to each well, and the plate was kept at 37° C. for 1 hour to fix the cells to the bottom of the plate. 10% trichloroacetic acid was removed from each well, the plate was dried, 100 μl of an SRB (Sulforhodamine-B, Sigma) dye solution was added thereto, and reacted for 10 mins. The SRB dye solution was prepared by dissolving SRB in 1% acetic acid to a concentration of 0.4%. After removing the dye solution, the plate was washed with water, and dried. When the dye solution was not removed by water, 1% acetic acid was used.
(§5) 150 μl of 10 mM trisma base (Sigma) was added to each well, and the absorbance at 570 nm was determined with a microplate reader (Molecular device).

EGFR1 (HER-1) = EGFR1 (HER-1) (Homo sapiens (Human), UniProt P00533); experiment: EGFR1 (HER-1) enzyme assay, fluorescence polarization; assay type: biochemical; conditions: 100 μM ATP, poly(Glu, Tyr) substrate
[2] = system: Human Umbilical Vein Endothelial Cell (HUVEC); experiment: Inhibitory effect on growth of human umbilical vein endothelial cell (HUVEC), MTS; assay type: cell-based; conditions: 10 ng/ml VEGF, absorbance 490 nm
Experimental: HUVECs (Young Science, Inc) were suspended in a culture medium, EBM-2 (Endothelial Basic Media, Cambrex) supplemented with 2% bovine serum (Cambrex) and auxiliary additives for HUVEC culture (e.g., EGF, VEGF, FGF, etc., Cambrex), inoculated into a culture flask coated with 1% gelatin, and incubated in an incubator at 37° C. under 5% CO2 and 100% humidity.
100 μl of 5% bovine serum medium containing 10 ng/ml of vascular endothelial growth factor (VEGF) and auxiliary additives, while excluding other growth factors was added to each well of a 96-well plate. […] DMSO (Dimethylsulfoxide) was used to dissolve the test compounds, and the final concentration of DMSO was less than 1%.
100 μl of the diluted cell solution was added to each well of the 96-well plate, which was incubated in an incubator for 96 hours.
Then, 20 μl of MTS ([…], Promega) solution was added to each well of the plate, and the plate was incubated in an incubator for 4 hours to induce discoloration. After 4 hours, the pellets were dissolved by way of a thorough shaking, and the absorbance at 490 nm was determined.

[3] = system: breast cancer cell line, SK-Br3; experiment: Inhibitory effect on growth of cancer cell line SK-Br3, SRB; assay type: cell-based; conditions: overexpressed EGFR2 (HER-2)
Description: as §1, §2, §3, §4, §5

[4] = system: colon and rectal cancer cell line, SW-620; experiment: Inhibitory effect on growth of cancer cell line SW-620, SRB; assay type: cell-based; conditions: not having overexpressed EGFR and EGFR2
Description: as §1, §2, §3, §4, §5

EGFR1 (HER-1), sequence (P00533 25-1210): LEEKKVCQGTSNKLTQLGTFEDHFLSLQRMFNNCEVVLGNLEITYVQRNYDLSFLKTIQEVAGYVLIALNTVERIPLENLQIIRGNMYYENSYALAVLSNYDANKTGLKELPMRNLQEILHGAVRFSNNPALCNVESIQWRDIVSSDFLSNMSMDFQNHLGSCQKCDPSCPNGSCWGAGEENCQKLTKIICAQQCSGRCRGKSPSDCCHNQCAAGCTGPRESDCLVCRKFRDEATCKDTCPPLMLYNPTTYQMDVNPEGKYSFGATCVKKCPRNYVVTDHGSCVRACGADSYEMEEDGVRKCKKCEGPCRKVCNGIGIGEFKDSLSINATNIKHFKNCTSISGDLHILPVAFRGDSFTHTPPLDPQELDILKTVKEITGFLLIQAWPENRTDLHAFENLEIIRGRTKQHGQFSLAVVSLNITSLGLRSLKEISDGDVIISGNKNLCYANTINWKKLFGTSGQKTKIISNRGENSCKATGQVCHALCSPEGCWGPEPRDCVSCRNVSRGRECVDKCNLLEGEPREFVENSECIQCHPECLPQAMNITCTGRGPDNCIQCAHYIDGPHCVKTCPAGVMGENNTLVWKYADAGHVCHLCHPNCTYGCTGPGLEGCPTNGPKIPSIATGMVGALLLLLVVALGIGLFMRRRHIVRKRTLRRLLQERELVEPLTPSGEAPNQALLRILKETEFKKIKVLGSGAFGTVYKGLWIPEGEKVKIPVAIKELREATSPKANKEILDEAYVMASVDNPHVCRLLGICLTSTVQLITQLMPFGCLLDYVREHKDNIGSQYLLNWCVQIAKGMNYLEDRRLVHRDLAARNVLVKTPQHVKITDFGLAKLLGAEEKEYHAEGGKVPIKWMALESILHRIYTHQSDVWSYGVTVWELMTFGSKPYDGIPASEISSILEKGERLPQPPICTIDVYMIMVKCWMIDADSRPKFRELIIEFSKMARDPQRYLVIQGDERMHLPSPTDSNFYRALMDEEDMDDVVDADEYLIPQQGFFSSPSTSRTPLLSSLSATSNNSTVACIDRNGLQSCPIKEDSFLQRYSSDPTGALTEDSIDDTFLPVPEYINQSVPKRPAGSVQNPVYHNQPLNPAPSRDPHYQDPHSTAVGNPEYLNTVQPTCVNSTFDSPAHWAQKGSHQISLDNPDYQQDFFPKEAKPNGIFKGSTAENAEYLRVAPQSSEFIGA
VEGFR2 (KDR), sequence (P35968 20-1356): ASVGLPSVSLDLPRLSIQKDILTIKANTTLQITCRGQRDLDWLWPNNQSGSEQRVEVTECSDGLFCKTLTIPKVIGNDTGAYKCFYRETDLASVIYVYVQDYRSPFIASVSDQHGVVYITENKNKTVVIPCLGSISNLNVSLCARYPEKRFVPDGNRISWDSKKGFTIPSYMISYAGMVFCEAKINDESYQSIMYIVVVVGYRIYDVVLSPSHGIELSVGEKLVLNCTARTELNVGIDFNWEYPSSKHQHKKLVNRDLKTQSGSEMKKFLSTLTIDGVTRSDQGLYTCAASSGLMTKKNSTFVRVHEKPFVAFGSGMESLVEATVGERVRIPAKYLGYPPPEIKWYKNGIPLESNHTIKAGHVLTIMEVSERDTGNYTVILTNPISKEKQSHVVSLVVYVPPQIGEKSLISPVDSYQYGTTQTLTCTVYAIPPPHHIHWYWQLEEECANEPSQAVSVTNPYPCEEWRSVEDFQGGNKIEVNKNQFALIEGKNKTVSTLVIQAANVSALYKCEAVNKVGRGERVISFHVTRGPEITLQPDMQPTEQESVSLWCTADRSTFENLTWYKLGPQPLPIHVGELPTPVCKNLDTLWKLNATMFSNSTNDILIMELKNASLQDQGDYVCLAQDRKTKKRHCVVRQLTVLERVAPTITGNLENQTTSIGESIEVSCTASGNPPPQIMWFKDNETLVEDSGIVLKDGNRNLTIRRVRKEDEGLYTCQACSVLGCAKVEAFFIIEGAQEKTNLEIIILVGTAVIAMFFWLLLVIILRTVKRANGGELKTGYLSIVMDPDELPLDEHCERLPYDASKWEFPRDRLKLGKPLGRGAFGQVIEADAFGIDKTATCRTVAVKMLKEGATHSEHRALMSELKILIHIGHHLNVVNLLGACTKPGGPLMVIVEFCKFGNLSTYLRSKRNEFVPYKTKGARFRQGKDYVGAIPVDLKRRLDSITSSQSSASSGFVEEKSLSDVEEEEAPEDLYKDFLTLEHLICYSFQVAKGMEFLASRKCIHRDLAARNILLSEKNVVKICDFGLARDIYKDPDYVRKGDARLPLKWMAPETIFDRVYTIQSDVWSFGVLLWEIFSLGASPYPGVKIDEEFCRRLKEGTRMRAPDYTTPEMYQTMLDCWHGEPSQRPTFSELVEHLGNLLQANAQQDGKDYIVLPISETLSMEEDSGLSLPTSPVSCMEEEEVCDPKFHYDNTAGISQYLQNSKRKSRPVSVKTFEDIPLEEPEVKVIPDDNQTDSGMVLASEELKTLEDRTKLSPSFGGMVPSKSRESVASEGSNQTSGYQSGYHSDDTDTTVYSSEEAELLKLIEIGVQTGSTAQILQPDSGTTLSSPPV

| IC50 (VEGFR2 (KDR)) [nM] | IC50 ([1]; Homo sapiens, A-431, 72 h) [nM] | IC50 (EGFR1 (HER-1)) [nM] | IC50 ([3]; Homo sapiens, SK-BR-3, 72 h) [nM] | IC50 ([4]; Homo sapiens, 72 h) [nM] | Structure (SMILES) | IC50 ([2]; Homo sapiens, 96 h) [nM] | IC50 ([1]; 72 hours) [nM] | IC50 ([2]; 96 hours) [nM] | IC50 ([3]; 72 hours) [nM] | IC50 ([4]; 72 hours) [nM] |
| --- | --- | --- | --- | --- | --- | --- | --- | --- | --- | --- |
| 635 | 35 | 39 | 198 | 7520 | C=CC(=O)Nc1cc2c(Nc3ccc(Br)cc3F)ncnc2cc1OCCNC(=O)CSC [Example 46, N-{4-(4-bromo-2-fluoro-phenylamino)-7-[2-(2-methylsulfanyl-acetylamino)-ethoxy]-quinazolin-6-yl}-acrylamide] | 656 |  |  |  |  |
| 250 | 49 | 5 | 80 | 10000 | C=CC(=O)NCCOc1cc2ncnc(Nc3ccc(Br)cc3F)c2cc1NC(=O)C=C [Example 26, N-{2-[6-acryloylamino-4-(4-bromo-2-fluoro-phenylamino)-quinazolin-7-yloxy]-ethyl}-acrylamide] | 87 |  |  |  |  |
| 782 | 86 | 76 | 236 | 10000 | C=CC(=O)Nc1cc2c(Nc3ccc(Br)cc3F)ncnc2cc1OCCNC(=O)N1CCN(C(C)=O)CC1 [Example 95, 4-acetyl-piperazine-1-carboxylic acid {2-[6-acryloylamino-4-(4-bromo-2-fluoro-phenylamino)-quinazolin-7-yloxy]-ethyl}-amide] | 786 |  |  |  |  |
| 853 | 264 | 196 | 311 | 2800 | C=CC(=O)Nc1cc2c(Nc3ccc(Br)cc3F)ncnc2cc1OCCNC(=O)C1CCCN1C(=O)CC (stereo not drawn) [Example 106, 1-propionyl-pyrrolidine-2-carboxylic acid {2-[6-acryloylamino-4-(4-bromo-2-fluoro-phenylamino)-quinazolin-7-yloxy]-ethyl}-amide] | 951 |  |  |  |  |
| 54 | 6 | 7 | 12 | 721 | C=CC(=O)Nc1cc2c(Nc3ccc(Br)c(Cl)c3F)ncnc2cc1OCCNC(=O)CCN(CC)CC [Example 144, N-{4-(4-bromo-3-chloro-2-fluoro-phenylamino)-7-[2-(3-diethylamino-propionylamino)-ethoxy]-quinazolin-6-yl}-acrylamide] | 154 |  |  |  |  |
| 250 | 38 | 26 | 67 | 9570 | C=CC(=O)Nc1cc2c(Nc3ccc(F)c(F)c3F)ncnc2cc1OCC1CCN(C(C)=O)CC1 [Example 7, N-[7-(1-acetyl-piperidin-4-ylmethoxy)-4-(2,3,4-trifluoro-phenylamino)-quinazolin-6-yl]-acrylamide] | 99 |  |  |  |  |
| 823 | 21 | 20 | 39 | 721 | C=CC(=O)Nc1cc2c(Nc3cc(Cl)c(Cl)cc3F)ncnc2cc1OCCNC(=O)COC [Example 138, N-{4-(4,5-dichloro-2-fluoro-phenylamino)-7-[2-(2-methoxy-acetylamino)-ethoxy]-quinazolin-6-yl}-acrylamide] | 845 |  |  |  |  |
| 354 | 37 | 36 | 84 | 10000 | C=CC(=O)Nc1cc2c(Nc3ccc(Br)cc3F)ncnc2cc1OCCNC(=O)C=CCC [Example 52, pent-2-enoic acid {2-[6-acryloylamino-4-(4-bromo-2-fluoro-phenylamino)-quinazolin-7-yloxy]-ethyl}-amide] | 350 |  |  |  |  |
| 365 | 951 | 866 | 7800 | 10000 | CCC(=O)Nc1cc2c(Nc3ccc(Br)cc3F)ncnc2cc1OCCNC(C)=O [Example 77, propionic acid [7-(2-acetylamino-ethoxy)-4-(4-bromo-2-fluoro-phenylamino)-quinazolin-6-yl]-amide] | 350 |  |  |  |  |
| 56 | 12 | 13 | 37 | 10000 | C=CC(=O)Nc1cc2c(Nc3ccc(Br)c(Cl)c3F)ncnc2cc1OCCNC(C)=O [Example 141, N-[7-(2-acetylamino-ethoxy)-4-(4-bromo-3-chloro-2-fluoro-phenylamino)-quinazolin-6-yl]-acrylamide] | 66 |  |  |  |  |
| 55 | 8 | 6 | 330 | 2760 | C=CC(=O)Nc1cc2c(Nc3ccc(Br)cc3F)ncnc2cc1OCC1CCN(C(=O)CN(C)C)CC1 [Example 10, N-{4-(4-bromo-2-fluoro-phenylamino)-7-[1-(2-dimethylamino-acetyl)-piperidin-4-ylmethoxy]-quinazolin-6-yl}-acrylamide] | 49 |  |  |  |  |
| 140 | 1250 | 894 | 1370 | 7530 | C=CC(=O)Nc1cc2c(Nc3ccc(Br)c(F)c3F)ncnc2cc1OCCNC(=O)CCN1CCCCC1 [Example 126, N-{4-(4-bromo-2,3-difluoro-phenylamino)-7-[2-(3-piperidin-1-yl-propionylamino)-ethoxy]-quinazolin-6-yl}-acrylamide] | 286 |  |  |  |  |
| 147 | 15 | 16 | 41 | 9560 | C=CC(=O)Nc1cc2c(Nc3ccc(Br)c(Cl)c3F)ncnc2cc1OCCNC(=O)CO [Example 149, N-{4-(4-bromo-3-chloro-2-fluoro-phenylamino)-7-[2-(2-hydroxy-acetylamino)-ethoxy]-quinazolin-6-yl}-acrylamide] | 204 |  |  |  |  |

| Structure (SMILES) | IC50 (VEGFR2 (KDR)) [nM] | IC50 ([1]; Homo sapiens, A-431, 72 h) [nM] | IC50 (EGFR1 (HER-1)) [nM] | IC50 ([3]; Homo sapiens, SK-BR-3, 72 h) [nM] | IC50 ([4]; Homo sapiens, 72 h) [nM] | IC50 ([2]; Homo sapiens, 96 h) [nM] | IC50 ([1]; 72 hours) [nM] | IC50 ([2]; 96 hours) [nM] | IC50 ([3]; 72 hours) [nM] | IC50 ([4]; 72 hours) [nM] |
| --- | --- | --- | --- | --- | --- | --- | --- | --- | --- | --- |
| C=CC(=O)Nc1cc2c(Nc3ccc(Br)c(Cl)c3F)ncnc2cc1OC[C@@H](C)NC(=O)CN(C)C [Example 159] | 419 |  | 286 |  |  |  | 254 | 423 | 162 | 6650 |
